Data published in patent US11673890B2, “N1-pyrazolospiroketone acetyl-CoA carboxylase inhibitors” (Pfizer Inc., priority 2010, dated 2023).
Like-named read-outs stand apart in the source and are kept apart here.

Assays:
[1] = biological target: T1, recombinant human ACC1 (rhACC1) (Homo sapiens, UniProt Q13085, DEL44-44); test: recombinant hACC1 Transcreener assay (ADP detection FP); format: biochemical
T1 construct: infected with recombinant baculovirus containing full length human ACC1 cDNA; made in house; host or cells: SF9 insect cells (baculovirus)
Method: For example direct inhibition of ACC activity, for the compound of Formula (1) was determined using preparations of recombinant human ACC1 (rhACC1) and recombinant human ACC2 (rhACC2).
[1] Preparation of rhACC1. Two liters of SF9 cells, infected with recombinant baculovirus containing full length human ACC1 cDNA, were suspended in ice-cold lysis buffer (25 mM Tris, pH 7.5; 150 mM NaCl; 10% glycerol; 5 mM imidazole (EMD Bioscience; Gibbstown, N.J.); 2 mM TCEP (BioVectra; Charlottetown, Canada); Benzonase nuclease (10000 U/100 g cell paste; Novagen; Madison, Wis.); EDTA-free protease inhibitor cocktail (1 tab/50 mL; Roche Diagnostics; Mannheim, Germany). Cells were lysed by 3 cycles of freeze-thaw and centrifuged at 40,000×g for 40 minutes (4° C.). Supernatant was directly loaded onto a HisTrap FF crude column (GE Healthcare; Piscataway, N.J.) and eluted with an imidazole gradient up to 0.5 M over 20 column volumes (CV). ACC1-containing fractions were pooled and diluted 1:5 with 25 mM Tris, pH 7.5, 2 mM TCEP, 10% glycerol and direct loaded onto a CaptoQ (GE Healthcare) column and eluted with an NaCl gradient up to 1 M over 20 CV's. Phosphate groups were removed from purified ACC1 by incubation with lambda phosphatase (100 U/10 μM target protein; New England Biolabs; Beverly, Mass.) for 14 hours at 4° C.; okadaic acid was added (1 μM final concentration; Roche Diagnostics) to inhibit the phosphatase. Purified ACC1 was exchanged into 25 mM Tris, pH 7.5, 2 mM TCEP, 10% glycerol, 0.5 M NaCl by 6 hour dialysis at 4° C. Aliquots were prepared and frozen at −80° C.
[2] […] The final conditions for the assay were 50 mM HEPES, pH 7.2, 10 mM MgCl2, 7.5 mM tripotassium citrate, 2 mM DTT, 0.1 mg/mL BSA, 30 μM acetyl-CoA, 50 μM ATP, and 10 mM KHCO3. Typically, a 10 μl reaction was run for 120 min at 25° C., and 10 μl of Transcreener stop and detect buffer was added and the combination incubated at room temp for an additional 1 hour.
All of the examples in both assays were run with a minimum of n=3.

[2] = biological target: T2, recombinant human ACC2 (rhACC2) (Homo sapiens, UniProt O00763, V2141I); test: recombinant hACC2 Transcreener assay (ADP detection FP); format: biochemical; details: 50 μM ATP, minimum of n=3
T2 construct: a full length Cytomax clone of ACC2 was purchased from Cambridge Bioscience Limited; made in house; host or cells: CHO cells (tetracycline-inducible, pcDNA5 FRT TO-TOPO)
T2 sequence (O00763 whole entry V2141I): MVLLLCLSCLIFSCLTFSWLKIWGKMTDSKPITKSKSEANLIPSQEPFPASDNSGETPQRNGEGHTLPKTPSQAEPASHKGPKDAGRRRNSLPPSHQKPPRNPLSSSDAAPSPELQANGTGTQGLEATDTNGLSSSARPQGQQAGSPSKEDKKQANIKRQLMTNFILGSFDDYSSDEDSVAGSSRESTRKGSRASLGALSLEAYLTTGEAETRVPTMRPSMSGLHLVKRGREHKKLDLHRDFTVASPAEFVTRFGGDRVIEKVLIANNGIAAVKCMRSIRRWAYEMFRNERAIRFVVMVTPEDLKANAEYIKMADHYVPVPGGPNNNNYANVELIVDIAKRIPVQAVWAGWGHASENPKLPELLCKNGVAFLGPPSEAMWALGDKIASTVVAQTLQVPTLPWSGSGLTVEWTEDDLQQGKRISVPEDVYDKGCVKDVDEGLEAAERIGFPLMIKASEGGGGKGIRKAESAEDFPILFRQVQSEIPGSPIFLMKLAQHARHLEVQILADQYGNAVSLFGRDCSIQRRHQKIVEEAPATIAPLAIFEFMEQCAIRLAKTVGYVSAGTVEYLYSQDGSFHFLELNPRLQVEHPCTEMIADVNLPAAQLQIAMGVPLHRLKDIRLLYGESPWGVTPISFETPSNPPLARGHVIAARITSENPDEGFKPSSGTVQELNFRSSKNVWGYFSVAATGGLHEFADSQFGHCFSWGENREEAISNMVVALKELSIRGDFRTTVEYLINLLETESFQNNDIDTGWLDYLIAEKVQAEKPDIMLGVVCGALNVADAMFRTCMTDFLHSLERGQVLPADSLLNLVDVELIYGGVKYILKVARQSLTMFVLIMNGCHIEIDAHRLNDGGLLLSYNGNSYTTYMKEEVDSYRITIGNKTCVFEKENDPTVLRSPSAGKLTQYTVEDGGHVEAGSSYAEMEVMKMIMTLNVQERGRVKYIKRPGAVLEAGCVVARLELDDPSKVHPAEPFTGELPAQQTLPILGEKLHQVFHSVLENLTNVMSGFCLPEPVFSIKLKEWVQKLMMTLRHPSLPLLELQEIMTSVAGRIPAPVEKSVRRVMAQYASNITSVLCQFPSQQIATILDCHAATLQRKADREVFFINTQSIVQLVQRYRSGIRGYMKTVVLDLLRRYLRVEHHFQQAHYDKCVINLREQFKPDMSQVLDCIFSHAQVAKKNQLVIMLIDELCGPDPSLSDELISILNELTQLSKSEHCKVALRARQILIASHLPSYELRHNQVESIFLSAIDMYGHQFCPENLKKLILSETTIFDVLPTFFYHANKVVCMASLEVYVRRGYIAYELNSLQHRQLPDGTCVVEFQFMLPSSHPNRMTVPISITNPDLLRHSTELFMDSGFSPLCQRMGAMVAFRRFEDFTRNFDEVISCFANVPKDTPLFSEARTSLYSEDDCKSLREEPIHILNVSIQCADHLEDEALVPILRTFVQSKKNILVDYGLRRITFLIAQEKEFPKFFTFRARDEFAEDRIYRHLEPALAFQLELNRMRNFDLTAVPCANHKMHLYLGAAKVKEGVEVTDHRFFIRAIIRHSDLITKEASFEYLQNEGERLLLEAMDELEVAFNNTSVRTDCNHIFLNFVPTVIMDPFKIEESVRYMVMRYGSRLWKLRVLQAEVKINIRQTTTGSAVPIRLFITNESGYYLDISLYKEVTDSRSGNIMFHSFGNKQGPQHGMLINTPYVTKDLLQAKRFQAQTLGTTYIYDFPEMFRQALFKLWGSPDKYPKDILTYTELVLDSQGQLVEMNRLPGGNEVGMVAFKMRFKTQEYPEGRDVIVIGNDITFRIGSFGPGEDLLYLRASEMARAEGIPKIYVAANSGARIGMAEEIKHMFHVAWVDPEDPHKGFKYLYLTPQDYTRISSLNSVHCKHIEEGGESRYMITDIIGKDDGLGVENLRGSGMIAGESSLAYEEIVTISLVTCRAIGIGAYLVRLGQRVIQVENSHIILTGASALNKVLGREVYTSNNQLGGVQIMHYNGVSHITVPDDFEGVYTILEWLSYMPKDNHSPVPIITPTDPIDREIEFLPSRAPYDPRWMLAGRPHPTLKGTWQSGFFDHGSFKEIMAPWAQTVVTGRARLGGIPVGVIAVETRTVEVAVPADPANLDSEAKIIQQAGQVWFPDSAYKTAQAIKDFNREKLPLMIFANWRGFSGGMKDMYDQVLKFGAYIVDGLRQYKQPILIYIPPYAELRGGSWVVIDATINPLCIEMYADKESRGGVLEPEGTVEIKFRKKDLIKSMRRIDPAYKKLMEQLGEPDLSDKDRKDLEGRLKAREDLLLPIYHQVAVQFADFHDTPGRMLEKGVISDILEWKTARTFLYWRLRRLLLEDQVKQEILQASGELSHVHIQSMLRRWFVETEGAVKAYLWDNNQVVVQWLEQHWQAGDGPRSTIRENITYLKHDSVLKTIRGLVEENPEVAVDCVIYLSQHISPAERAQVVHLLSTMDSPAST
Method: For example direct inhibition of ACC activity, for the compound of Formula (1) was determined using preparations of recombinant human ACC1 (rhACC1) and recombinant human ACC2 (rhACC2). Representative sequences of the recombinant human ACC1 and ACC2 that can be used in the assay are provided in FIG. 1 (SEQ ID NO. 1) and FIG. 2 (SEQ. ID NO. 2), respectively.
[3] Preparation of rhACC2. Human ACC2 inhibition was measured using purified recombinant human ACC2 (hrACC2). Briefly, a full length Cytomax clone of ACC2 was purchased from Cambridge Bioscience Limited and was sequenced and subcloned into PCDNA5 FRT TO-TOPO (Invitrogen, Carlsbad, Calif.). The ACC2 was expressed in CHO cells by tetracycline induction and harvested in 5 liters of DMEM/F12 with glutamine, biotin, hygromycin and blasticidin with 1 μg/mL tetracycline (Invitrogen, Carlsbad, Calif.). The conditioned medium containing ACC2 was then applied to a Softlink Soft Release Avidin column (Promega, Madison, Wis.) and eluted with 5 mM biotin. 4 mgs of ACC2 were eluted at a concentration of 0.05 mg/mL (determined by A280) with an estimated purity of 95% ([…]). The purified ACC2 was dialyzed in 50 mM Tris, 200 mM NaCl, 4 mM DTT, 2 mM EDTA, and 5% glycerol. The pooled protein was frozen and stored at −80° C., with no loss of activity upon thawing. For measurement of ACC2 activity and assessment of ACC2 inhibition, test compounds were dissolved in DMSO and added to the rhACC2 enzyme as a 5× stock with a final DMSO concentration of 1%.
[4] Measurement of human ACC2 inhibition. hACC2 was assayed in a Costar #3676 (Costar, Cambridge, Mass.) 384-well plate using the Transcreener ADP detection FP assay kit (Bellbrook Labs, Madison, Wis.) using the manufacturer's recommended conditions for a 50 uM ATP reaction. The final conditions for the assay were 50 mM HEPES, pH 7.2, 5 mM MgCl2, 5 mM tripotassium citrate, 2 mM DTT, 0.1 mg/mL BSA, 30 μM acetyl-CoA, 50 μM ATP, and 8 mM KHCO3. Typically, a 10 μl reaction was run for 50 min at 25° C., and 10 μl of Transcreener stop and detect buffer was added and the combination incubated at room temp for an additional 1 hour. The data was acquired on an Envision Fluorescence reader (Perkinelmer) using a 620 excitation Cy5 FP general dual mirror, 620 excitation Cy5 FP filter, 688 emission (S) and a 688 (P) emission filter.
The results using the recombinant hACC1 and recombinant hACC2 Transcreener assays described above are summarized in the table below for the Compounds of Formula (I) exemplified in the Examples above. All of the examples in both assays were run with a minimum of n=3.

[3] = recombinant hACC1 Transcreener assay, 50 μM ATP, minimum of n=3, read-out: hACC1

CNc1ncc(-c2cccc(C(=O)O)c2)cc1C(=O)N1CCC2(CC1)CC(=O)c1c(cnn1C(C)C)C2 [Example 43, 3-{5-[(1-isopropyl-7-oxo-1,4,6,7-tetrahydro-1′H-spiro[indazole-5,4′-piperidin]-1′-yl)carbonyl]-6-(methylamino)pyridin-3-yl}benzoic acid]
IC50 [1, 3]: 98.4 nM | IC50 [2]: 133 nM

CC(C)n1ncc2c1C(=O)CC1(CCN(C(=O)c3cc4c(-c5ccc(C(=O)O)cc5)cncc4[nH]3)CC1)C2 [Example 38, 4-{2-[(1-isopropyl-7-oxo-1,4,6,7-tetrahydro-1′H-spiro[indazole-5,4′-piperidin]-1′-yl)carbonyl]-1H-pyrrolo[2,3-c]pyridin-4-yl}benzoic acid]
IC50 [1, 3]: 33.5 nM | IC50 [2]: 19.9 nM

CC(C)n1ncc2c1C(=O)CC1(CCN(C(=O)c3cc4c(-c5cccc(C(=O)O)c5)ncnc4[nH]3)CC1)C2 [Example 36, 3-{6-[(1-isopropyl-7-oxo-1,4,6,7-tetrahydro-1′H-spiro[indazole-5,4′-piperidin]-1′-yl)carbonyl]-7H-pyrrolo[2,3-d]pyrimidin-4-yl}benzoic acid]
IC50 [1, 3]: 44.4 nM | IC50 [2]: 29.3 nM

CC(C)(C)n1ncc2c1C(=O)CC1(CCN(C(=O)c3ccc(-c4cccc(C(=O)O)c4)cc3)CC1)C2 [Example 6, 4′-[(1-tert-butyl-7-oxo-1,4,6,7-tetrahydro-1′H-spiro[indazole-5,4′-piperidin]-1′-yl)carbonyl]biphenyl-3-carboxylicacid]
IC50 [1, 3]: 260 nM | IC50 [2]: 115 nM

COc1cc(C(=O)N2CCC3(CC2)CC(=O)c2c(cnn2C(C)C)C3)cc(-c2cccc(C(=O)O)c2)n1 [Example 2, 3-(4-(1-Isopropyl-7-oxo-1,4,6,7-tetrahydrospiro[indazole-5,4′-piperidine]-1′-ylcarbonyl)-6-methoxypyridin-2-yl)benzoic acid]
IC50 [1, 3]: 59.6 nM | IC50 [2]: 84.1 nM

CC(C)n1ncc2c1C(=O)CC1(CCN(C(=O)c3ccc(-c4cccc(-c5nnn[nH]5)c4)cc3)CC1)C2 [Example 48, 1-isopropyl-1′-{[3′-(1H-tetrazol-5-yl)biphenyl-4-yl]carbonyl}-1,4-dihydrospiro[indazole-5,4′-piperidin]-7(6H)-one]
IC50 [1, 3]: 59.5 nM | IC50 [2]: 28 nM

CC(C)Nc1nc(-c2ccc(C(=O)O)cc2)ccc1C(=O)N1CCC2(CC1)CC(=O)c1c(cnn1C(C)C)C2 [Example 25, 4-{6-(isopropylamino)-5-[(1-isopropyl-7-oxo-1,4,6,7-tetrahydro-1′H-spiro[indazole-5,4′-piperidin]-1′-yl)carbonyl]pyridin-2-yl}benzoic acid]
IC50 [1, 3]: 600 nM | IC50 [2]: 202 nM

COc1cc(C(=O)N2CCC3(CC2)CC(=O)c2c(cnn2C(C)C)C3)cc(-c2ccc(C(=O)O)cc2)n1 [Example 9, 4-{4-[(1-isopropyl-7-oxo-1,4,6,7-tetrahydro-1′H-spiro[indazole-5,4′-piperidin]-1′-yl)carbonyl]-6-methoxypyridin-2-yl}benzoic acid]
IC50 [1]: 30.9 nM | IC50 [2]: 29.7 nM

CNc1nc(-c2cccc(C(=O)O)c2)ccc1C(=O)N1CCC2(CC1)CC(=O)c1c(cnn1C(C)(C)C)C2 [Example 4, 3-{5-[(1-tert-butyl-7-oxo-1,4,6,7-tetrahydro-1′H-spiro[indazole-5,4′-piperidin]-1′-yl)carbonyl]-6-(methylamino)pyridin-2-yl}benzoic acid]
IC50 [1, 3]: 116 nM | IC50 [2]: 53 nM

CC(C)(C)n1ncc2c1C(=O)CC1(CCN(C(=O)c3cc4c(-c5cccc(C(=O)O)c5)cccc4[nH]3)CC1)C2 [Example 17, 3-{2-[(1-tert-butyl-7-oxo-1,4,6,7-tetrahydro-1′H-spiro[indazole-5,4′-piperidin]-1′-yl)carbonyl]-1H-indol-4-yl}benzoic acid]
IC50 [1, 3]: 15.6 nM | IC50 [2]: 21.6 nM

CC(C)n1ncc2c1C(=O)CC1(CCN(C(=O)c3cc(-c4ccc(C(=O)O)cc4)c4cc[nH]c4c3)CC1)C2 [Example 37, 4-{6-[(1-isopropyl-7-oxo-1,4,6,7-tetrahydro-1′H-spiro[indazole-5,4′-piperidin]-1′-yl)carbonyl]-1H-indol-4-yl}benzoic acid]
IC50 [1, 3]: 6.6 nM | IC50 [2]: 3.2 nM

CC(C)n1ncc2c1C(=O)CC1(CCN(C(=O)c3cc(-c4cccc(C(=O)O)c4)nc(N(C)C)c3)CC1)C2 [Example 32, 3-{6-(dimethylamino)-4-[(1-isopropyl-7-oxo-1,4,6,7-tetrahydro-1′H-spiro[indazole-5,4′-piperidin]-1′-yl)carbonyl]pyridin-2-yl}benzoic acid]
IC50 [1, 3]: 31.8 nM | IC50 [2]: 12.5 nM

4-{5-[(1-tert-butyl-7-oxo-1,4,6,7-tetrahydro-1′H-spiro[indazole-5,4′-piperidin]-1′-yl)carbonyl]-6-(ethylamino)pyridin-2-yl}benzoic acid [Example 13]
IC50 [1, 3]: 221 nM | IC50 [2]: 143 nM

CC(C)n1ncc2c1C(=O)CC1(CCN(C(=O)c3cc4c(-c5cccc(C(=O)O)c5)cccc4[nH]3)CC1)C2 [Example 15, 3-{2-[(1-isopropyl-7-oxo-1,4,6,7-tetrahydro-1′H-spiro[indazole-5,4′-piperidin]-1′-yl)carbonyl]-1H-indol-4-yl}benzoic acid]
IC50 [1, 3]: 6.11 nM | IC50 [2]: 7.88 nM

CC(C)n1ncc2c1C(=O)CC1(CCN(C(=O)c3ccc(-c4cccc(C(=O)O)c4)cc3)CC1)C2 [Example 7, 4′-[(1-isopropyl-7-oxo-1,4,6,7-tetrahydro-1′H-spiro[indazole-5,4′-piperidin]-1′-yl)carbonyl]biphenyl-3-carboxylic acid]
IC50 [1, 3]: 113 nM | IC50 [2]: 74.2 nM

COc1cc(C(=O)N2CCC3(CC2)CC(=O)c2c(cnn2C(C)(C)C)C3)cc(-c2cccc(C(=O)O)c2)n1 [Example 11, 3-{4-[(1-tert-butyl-7-oxo-1,4,6,7-tetrahydro-1′H-spiro[indazole-5,4′-piperidin]-1′-yl)carbonyl]-6-methoxypyridin-2-yl}benzoic acid]
IC50 [1, 3]: 180 nM | IC50 [2]: 268 nM

CC(C)n1ncc2c1C(=O)CC1(CCN(C(=O)c3cc4c(-c5ccc(C(=O)O)cc5)ncnc4[nH]3)CC1)C2 [Example 34, 4-{6-[(1-isopropyl-7-oxo-1,4,6,7-tetrahydro-1′H-spiro[indazole-5,4′-piperidin]-1′-yl)carbonyl]-7H-pyrrolo[2,3-d]pyrimidin-4-yl}benzoic acid]
IC50 [1, 3]: 55.8 nM | IC50 [2]: 42.6 nM
